Literature values in PMC11046985 (Neuro-Oncology Advances, 2024).

Legend:
[1] = daily administration, patients with brain tumors; cited from earlier work
[2] = parameters: method as in earlier work; conditions: erlotinib increased from 150 to 600 mg; cited from earlier work

For `COc1cc2ncnc(Nc3ccc(F)c(Cl)c3)c2cc1OCCCN1CCOCC1` [gefitinib], the “Therapeutic levels in cerebrospinal fluid (CSF)” value [1] is given as “did not appear to reach therapeutic levels”.

For `C#Cc1cccc(Nc2ncnc3cc(OCCOC)c(OCCOC)cc23)c1` [erlotinib], the “Increase of area under the curve estimation in the CSF” value [2] is given as 24%, the “Increase of area under the curve estimation in the plasma” value [2] is given as 2% and the “Therapeutic levels in cerebrospinal fluid (CSF)” value [1] is given as “did not appear to reach therapeutic levels”.
